According to US12565490B2, “Inhibitors of Receptor Interacting Protein Kinase I for the treatment of disease” (Board of Regents, The University of Texas System, priority 2020, dated 2026):

Test system: human monocytic cell line U937
Experiment: Human U937 cellular necroptosis assay
Format: cell-based
Settings: U-937; U937 cells stimulated with 25 ng/mL human TNFalpha and 25 μM z-VAD-FMK; 22 hr; viability by Cell Titer-Glo 2.0; read-out: hU937 IC50
Outline: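 U937 cells (5000/well) driven to necroptosis by 25 ng/mL human TNFalpha plus 25 μM z-VAD-FMK alongside 1:3-diluted compounds, 22 hr at 37° C, 5% CO2. Viability by CellTiter-Glo luminescence; IC50 from four-parameter logistic fit.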

Row | Structure (SMILES) | IC50 [nM]
1 | CN1C(=O)[C@@H](NC(=O)c2ncc(Cl)c(-c3ccn4cnnc4c3)n2)COc2cc(Cl)cnc21 [Example 115, (S)-4-([1,2,4]triazolo[4,3-a]pyridin-7-yl)-5-chloro-N-(8-chloro-5-methyl-4-oxo-2,3,4,5-tetrahydropyrido[3,2-b]-[1,4]oxazepin-3-yl)pyrimidine-2-carboxamide] | 330
2 | Cc1cnc(C(=O)N[C@H]2COc3cc(Cl)cnc3N(C)C2=O)nc1-c1ccccc1F [Example 116, (S)-N-(8-chloro-5-methyl-4-oxo-2,3,4,5-tetrahydro-pyrido[3,2-b][1,4]oxazepin-3-yl)-4-(2-fluorophenyl)-5-methylpyrimidine-2-carboxamide] | 8.42
3 | Cc1cnc(C(=O)N[C@H]2COc3cc(Cl)cnc3N(C)C2=O)nc1-c1cccc(F)c1F [Example 117, (S)-N-(8-chloro-5-methyl-4-oxo-2,3,4,5-tetrahydro-pyrido[3,2-b][1,4]oxazepin-3-yl)-4-(2,3-difluorophenyl)-5-methylpyrimidine-2-carboxamide] | 14.1
4 | Cc1cnc(C(=O)N[C@H]2COc3cc(Cl)cnc3N(C)C2=O)nc1-c1ccncc1F [Example 120, (S)-N-(8-chloro-5-methyl-4-oxo-2,3,4,5-tetrahydro-pyrido[3,2-b][1,4]oxazepin-3-yl)-4-(3-fluoropyridin-4-yl)-5-methylpyrimidine-2-carboxamide] | 134
5 | Cc1cnc(C(=O)N[C@H]2COc3cc(Cl)cnc3N(C)C2=O)nc1-c1ccc(F)cn1 [Example 121, (S)-N-(8-chloro-5-methyl-4-oxo-2,3,4,5-tetrahydro-pyrido[3,2-b][1,4]oxazepin-3-yl)-4-(5-fluoropyridin-2-yl)-5-methylpyrimidine-2-carboxamide] | 30.2
6 | Cc1cnc(C(=O)N[C@H]2COc3cc(Cl)cnc3N(C)C2=O)nc1-c1cncnc1 [Example 122, (S)-N-(8-chloro-5-methyl-4-oxo-2,3,4,5-tetrahydro-pyrido[3,2-b][1,4]oxazepin-3-yl)-5-methyl-[4,5′-bipyrimidine]-2-carboxamide] | 144
7 | Cc1cnc(C(=O)N[C@H]2COc3cc(Cl)cnc3N(C)C2=O)nc1-c1cnccn1 [Example 123, (S)-N-(8-chloro-5-methyl-4-oxo-2,3,4,5-tetrahydro-pyrido[3,2-b][1,4]oxazepin-3-yl)-5-methyl-4-(pyrazin-2-yl)-pyrimidine-2-carboxamide] | 48.5
8 | Cc1cnc(C(=O)N[C@H]2COc3cc(Cl)cnc3N(C)C2=O)nc1-c1ccc2nccn2c1 [Example 124, (S)-N-(8-chloro-5-methyl-4-oxo-2,3,4,5-tetrahydropyrido[3,2-b][1,4]oxazepin-3-yl)-4-(imidazo[1,2-a]pyridin-6-yl)-5-methylpyrimidine-2-carboxamide] | 165
9 | COc1cnc(C(=O)N[C@H]2COc3cc(Cl)cnc3N(C)C2=O)nc1-c1ccccc1 [Example 125, (S)-N-(8-chloro-5-methyl-4-oxo-2,3,4,5-tetrahydro-pyrido[3,2-b][1,4]oxazepin-3-yl)-5-methoxy-4-phenylpyrimidine-2-carboxamide] | 128
10 | CN1C(=O)[C@@H](NC(=O)c2ncc(CO)c(-c3ccccc3)n2)COc2cc(Cl)cnc21 [Example 126, (S)-N-(8-chloro-5-methyl-4-oxo-2,3,4,5-tetrahydro-pyrido[3,2-b][1,4]oxazepin-3-yl)-5-(hydroxymethyl)-4-phenylpyrimidine-2-carboxamide] | 30
11 | CN1C(=O)[C@@H](NC(=O)c2ncc(S(C)(=N)=O)c(-c3ccccc3)n2)COc2cc(Cl)cnc21 (stereo partly drawn) [Example 127, N-((S)-8-chloro-5-methyl-4-oxo-2,3,4,5-tetrahydro-pyrido[3,2-b][1,4]oxazepin-3-yl)-5-(S-methylsulfonimidoyl)-4-phenylpyrimidine-2-carboxamide] | 3950
12 | CN1C(=O)[C@@H](NC(=O)c2ncc(Cl)c(-c3cccc(F)c3)n2)COc2cc(C#N)ccc21 [Example 128, (S)-5-chloro-N-(8-cyano-5-methyl-4-oxo-2,3,4,5-tetrahydrobenzo[b]-[1,4]oxazepin-3-yl)-4-(3-fluorophenyl)pyrimidine-2-carboxamide] | 16.2
13 | CN1C(=O)[C@@H](NC(=O)c2ncc(Cl)c(-c3ccc(F)cc3)n2)COc2cc(C#N)ccc21 [Example 129, (S)-5-chloro-N-(8-cyano-5-methyl-4-oxo-2,3,4,5-tetrahydrobenzo[b]-[1,4]oxazepin-3-yl)-4-(4-fluorophenyl)pyrimidine-2-carboxamide] | 13.8
14 | CN1C(=O)[C@@H](NC(=O)c2ncc(Cl)c(-c3cc(F)ccc3F)n2)COc2cc(C#N)ccc21 [Example 130, (S)-5-chloro-N-(8-cyano-5-methyl-4-oxo-2,3,4,5-tetrahydrobenzo[b]-[1,4]oxazepin-3-yl)-4-(2,5-difluorophenyl)pyrimidine-2-carboxamide] | 16.1
15 | CN1C(=O)[C@@H](NC(=O)c2ncc(Cl)c(-c3ccc(Cl)cc3)n2)COc2cc(C#N)ccc21 [Example 131, (S)-5-chloro-4-(4-chlorophenyl)-N-(8-cyano-5-methyl-4-oxo-2,3,4,5-tetrahydrobenzo[b]-[1,4]oxazepin-3-yl)pyrimidine-2-carboxamide] | 22.1
16 | Cc1ccc(-c2nc(C(=O)N[C@H]3COc4cc(C#N)ccc4N(C)C3=O)ncc2Cl)cc1F [Example 132, (S)-5-chloro-N-(8-cyano-5-methyl-4-oxo-2,3,4,5-tetrahydrobenzo[b]-[1,4]oxazepin-3-yl)-4-(3-fluoro-4-methylphenyl)pyrimidine-2-carboxamide] | 20.2
17 | Cc1cnc(C(=O)N[C@H]2COc3cc(C#N)ccc3N(C)C2=O)nc1C12CCC(CC1)CC2 [Example 133, (S)-4-(bicyclo[2.2.2]octan-1-yl)-N-(8-cyano-5-methyl-4-oxo-2,3,4,5-tetrahydrobenzo[b]-[1,4]oxazepin-3-yl)-5-methylpyrimidine-2-carboxamide] | 160
18 | Cc1cnc(C(=O)N[C@H]2COc3cc(C#N)ccc3N(C)C2=O)nc1C1CCOCC1 [Example 134, (S)-N-(8-cyano-5-methyl-4-oxo-2,3,4,5-tetrahydrobenzo[b]-[1,4]oxazepin-3-yl)-5-methyl-4-(tetrahydro-2H-pyran-4-yl)-pyrimidine-2-carboxamide] | 246
19 | Cc1cnc(C(=O)N[C@H]2COc3cc(C#N)ccc3N(C)C2=O)nc1-c1cccc(F)c1 [Example 135, (S)-N-(8-cyano-5-methyl-4-oxo-2,3,4,5-tetrahydrobenzo[b]-[1,4]oxazepin-3-yl)-4-(3-fluorophenyl)-5-methylpyrimidine-2-carboxamide] | 17.6
20 | Cc1cnc(C(=O)N[C@H]2COc3cc(C#N)ccc3N(C)C2=O)nc1-c1ccc(F)cc1 [Example 136, (S)-N-(8-cyano-5-methyl-4-oxo-2,3,4,5-tetrahydrobenzo[b]-[1,4]oxazepin-3-yl)-4-(4-fluorophenyl)-5-methylpyrimidine-2-carboxamide] | 14.3
21 | Cc1ccc(-c2nc(C(=O)N[C@H]3COc4cc(C#N)ccc4N(C)C3=O)ncc2C)cc1 [Example 137, (S)-N-(8-cyano-5-methyl-4-oxo-2,3,4,5-tetrahydrobenzo[b]-[1,4]oxazepin-3-yl)-5-methyl-4-(p-tolyl)pyrimidine-2-carboxamide] | 18.8
